Measured values from patent US20260226001A1, “PROCESS FOR PREPARING AN N-GUANYLAMINO ACID” (Evonik Operations GmbH, priority 2023, published 2026).

Assays:
[1] = aqueous medium; cited from earlier work
[2] = Storage of acidic, concentrated permeate in a fridge; GAA content determined by HPLC; assay type: physicochemical; conditions: for GAA content: acidic and concentrated permeate stored in a fridge
Procedure: After fermentation and inactivation of the fermentation broth, the pH of the broth was adjusted to 1.5 using 75% w/w of H2SO4 at a temperature of 50° C. The biomass was removed by means of ultrafiltration and the temperature of the broth was kept constant at 50° C. The resulting permeate was concentrated at 80° C. and used for the crystallization step. The permeate fed to the crystallization was adjusted to pH 8 using 25% w/w of NH4OH. The formed crystals were separated by means of a suction filter and dried.
A part of the acidic and concentrated permeate was stored aside in a fridge over a period of ca. 2 weeks. The GAA content in said permeate was regularly determined by means of HPLC.
Description of the HPLC Method:
• 2.3 g ammonium dihydrogenphosphate (NH4H2PO4) and • 2.6 g di-ammonium hydrogenphosphate ((NH4)2HPO4) • dissolved in 2 L purified water
2.3 g ammonium dihydrogenphosphate (NH4H2PO4) and • 2.6 g di-ammonium hydrogenphosphate ((NH4)2HPO4) • dissolved in 1 L purified water and mixed with 1 L acetonitrile
The following gradient was used in the HPLC method: […]

Compound: N=C(N)NCC(=O)O [GAA, guanidinoacetic acid]
- pKa [1]: approximately 2.9
- pKb [1]: approximately 10.91
- GAA content ([2]; 1 Apr. 2022): 120.9 g/kg
- GAA content ([2]; 7 Apr. 2022): 118.5 g/kg
- GAA content ([2]; 12 Apr. 2022): 119.9 g/kg
- GAA content ([2]; 13 Apr. 2022): 119.3 g/kg
- degradation of the GAA in the acidic and concentrated permeate ([2]; fridge, over the 2-week period, HPLC): no degradation
